ChEMBL document CHEMBL1201862, “PubChem BioAssay data set” (2004)
Activity calls are given as the source filed them.

Tests used:
X-box-binding protein 1 = target: T1, X-box-binding protein 1 (Homo sapiens, UniProt P17861); assay type: functional, Cricetulus griseus;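 further: confirmatory dose-response counter-screen serving a CHOP assay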
T1 sequence (P17861 whole entry): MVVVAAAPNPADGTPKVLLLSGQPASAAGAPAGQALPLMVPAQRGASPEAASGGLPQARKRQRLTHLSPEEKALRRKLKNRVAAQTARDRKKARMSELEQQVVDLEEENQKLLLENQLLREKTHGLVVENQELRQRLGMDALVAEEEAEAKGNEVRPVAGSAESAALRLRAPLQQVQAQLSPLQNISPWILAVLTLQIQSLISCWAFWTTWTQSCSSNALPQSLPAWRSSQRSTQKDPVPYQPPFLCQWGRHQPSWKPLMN

[1] = inhibitors of firefly luciferase expression or activity, dose response, H4 neuroglioma cells, luminescence (AID 1990); assay type: functional, cell-based
BJ [2] = assay: cytotoxicity toward BJ-TERT fibroblasts, dose response, cell-based, RAS-independent, luminescence (AID 1933); assay type: functional; settings: Homo sapiens
[3] = target: Luciferin 4-monooxygenase (Photinus pyralis, UniProt P08659); assay: Counter Screen for Luciferase-based Assay Positives. [Related pubchem assays: 620, 618, 411 ]
Chain of Luciferin 4-monooxygenase (P08659 whole entry): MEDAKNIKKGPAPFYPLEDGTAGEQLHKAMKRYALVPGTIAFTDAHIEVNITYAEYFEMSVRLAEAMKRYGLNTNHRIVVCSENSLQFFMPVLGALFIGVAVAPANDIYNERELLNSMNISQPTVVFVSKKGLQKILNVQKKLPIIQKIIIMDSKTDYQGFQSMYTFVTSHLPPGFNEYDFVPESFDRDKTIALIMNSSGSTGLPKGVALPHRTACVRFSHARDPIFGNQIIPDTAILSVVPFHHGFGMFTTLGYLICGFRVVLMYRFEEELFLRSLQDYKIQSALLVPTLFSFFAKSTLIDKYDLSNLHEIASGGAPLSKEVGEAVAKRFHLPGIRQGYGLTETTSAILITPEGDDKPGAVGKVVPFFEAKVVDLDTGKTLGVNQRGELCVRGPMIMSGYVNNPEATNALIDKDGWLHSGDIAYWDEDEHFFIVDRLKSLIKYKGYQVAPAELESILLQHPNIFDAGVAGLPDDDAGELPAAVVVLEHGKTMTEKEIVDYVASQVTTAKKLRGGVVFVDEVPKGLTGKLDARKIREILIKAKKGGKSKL

[4] = target: Glyceraldehyde-3-phosphate dehydrogenase (Homo sapiens, UniProt P04406)
[5] = Luminescence Cell-Based Dose Response HTS to Identify Inhibitors of 5'UTR Stem-Loop Driven Prion Protein mRNA Translation in H4 Neuroglioblastoma Cells. [Related pubchem assays: 1827 (Project Summary), 1813 (Primary HTS)]; assay type: functional
[6] = inhibitors of SNCA 5'UTR-driven reporter translation, confirmation, H4 neuroglioma cells, luminescence (AID 1988); assay type: functional, cell-based
BJ [7] = assay: cells; assay type: functional, cell-based; settings: Homo sapiens
HT-1080 = assay: cytotoxicity in HT1080 fibrosarcoma cells, cell-based, fluorescence readout (AID 620); assay type: functional; settings: Homo sapiens
BJ [8] = assay: cytotoxicity toward BJ-TERT-LT-ST fibroblasts, dose response, cell-based, RAS-independent, luminescence (AID 1935); assay type: functional; settings: Homo sapiens;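 further: BJ fibroblasts immortalized with TERT plus LT and ST oncogenes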
[9] = cytotoxicity toward DRD oncogenic fibroblasts, dose response, cell-based, non-viral oncogenic, luminescence (AID 1934); assay type: functional; settings: Homo sapiens
cells [10] = assay type: functional, cell-based
[11] = target: T2, Trace amine-associated receptor 1 (Homo sapiens, UniProt Q96RJ0); assay: Fluorescence-based cell-based high throughput dose response assay to identify agonists of the human trace amine associated receptor 1 (TAAR1).; assay type: functional
T2 sequence (Q96RJ0 whole entry): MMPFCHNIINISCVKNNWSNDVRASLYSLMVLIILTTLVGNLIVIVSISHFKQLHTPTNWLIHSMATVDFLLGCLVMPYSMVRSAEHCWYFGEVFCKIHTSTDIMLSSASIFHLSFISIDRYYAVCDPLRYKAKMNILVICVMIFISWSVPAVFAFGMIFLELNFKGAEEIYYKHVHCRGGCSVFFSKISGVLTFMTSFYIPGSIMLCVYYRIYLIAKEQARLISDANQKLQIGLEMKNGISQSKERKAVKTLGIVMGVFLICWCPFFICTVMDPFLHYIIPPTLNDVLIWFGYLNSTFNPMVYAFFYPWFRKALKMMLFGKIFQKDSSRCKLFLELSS

[12] = target: T2, Trace amine-associated receptor 1; assay: Counterscreen for agonists of the human trace amine associated receptor 1 (hTAAR1): Fluorescence-based cell-based high throughput dose response assay to identify hTAAR1 agonist that also desensitize TAAR1 receptor response.; assay type: functional
cells [13] = assay type: functional, cell-based; remark: listed apart in the source
[14] = microbe, parasite or virus in culture; assay type: functional; settings: Mycobacterium tuberculosis
[15] = THP-1 cell cytotoxicity, dose response, cytotoxicity control for non-replicating M. tuberculosis project (AID 489025); assay type: functional
[16] = Vero E6 cell cytotoxicity, dose response, cytotoxicity control for non-replicating M. tuberculosis project, secondary assay (AID 492998); assay type: functional, VeroE6; settings: Vero C1008
cells [17] = assay type: functional
[18] = cytotoxicity in HPDE-C7 cells, cell-based, fluorescence, HTS (AID 430); assay type: functional; settings: Homo sapiens
[19] = cytotoxicity in KRAS-transformed pancreatic duct cells, primary screen, cell-based, fluorescence, HTS (AID 431); assay type: functional; settings: Homo sapiens;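 further: cell line used: HPDE-C7K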
[20] = target: DNA dC->dU-editing enzyme APOBEC-3G (Homo sapiens, UniProt Q9HC16); assay: Dose Response confirmation of small molecule APOBEC3G DNA Deaminase Inhibitors via a fluorescence-based single-stranded DNA deaminase assay. [Related pubchem assays (depositor defined):AID493012, AID493028]; assay type: functional
[21] = target: Heat shock protein HSP 90-alpha (Homo sapiens, UniProt P07900); assay type: functional, organism-based
[22] = target: Peroxisome proliferator-activated receptor gamma/Nuclear receptor coactivator 2 (Homo sapiens, UniProt P37231); assay type: functional;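 further: agonist potency for raising coactivator recruitment to the receptor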
Chain of Peroxisome proliferator-activated receptor gamma/Nuclear receptor coactivator 2 (P37231 whole entry): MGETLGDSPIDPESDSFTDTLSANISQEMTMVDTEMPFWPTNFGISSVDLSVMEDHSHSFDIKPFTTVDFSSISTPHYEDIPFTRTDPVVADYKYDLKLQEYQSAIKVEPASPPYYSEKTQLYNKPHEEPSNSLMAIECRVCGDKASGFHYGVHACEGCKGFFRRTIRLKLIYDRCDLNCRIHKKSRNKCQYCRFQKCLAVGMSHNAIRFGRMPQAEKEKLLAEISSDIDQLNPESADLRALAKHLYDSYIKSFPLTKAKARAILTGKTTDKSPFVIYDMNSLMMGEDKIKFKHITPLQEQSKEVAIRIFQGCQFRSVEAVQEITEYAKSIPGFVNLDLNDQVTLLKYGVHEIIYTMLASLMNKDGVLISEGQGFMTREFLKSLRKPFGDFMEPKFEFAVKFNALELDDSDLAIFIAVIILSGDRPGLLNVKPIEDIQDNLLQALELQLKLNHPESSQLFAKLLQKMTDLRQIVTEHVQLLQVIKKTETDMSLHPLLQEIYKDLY
Chain of Peroxisome proliferator-activated receptor gamma/Nuclear receptor coactivator 2 (Q15596 whole entry, further chain): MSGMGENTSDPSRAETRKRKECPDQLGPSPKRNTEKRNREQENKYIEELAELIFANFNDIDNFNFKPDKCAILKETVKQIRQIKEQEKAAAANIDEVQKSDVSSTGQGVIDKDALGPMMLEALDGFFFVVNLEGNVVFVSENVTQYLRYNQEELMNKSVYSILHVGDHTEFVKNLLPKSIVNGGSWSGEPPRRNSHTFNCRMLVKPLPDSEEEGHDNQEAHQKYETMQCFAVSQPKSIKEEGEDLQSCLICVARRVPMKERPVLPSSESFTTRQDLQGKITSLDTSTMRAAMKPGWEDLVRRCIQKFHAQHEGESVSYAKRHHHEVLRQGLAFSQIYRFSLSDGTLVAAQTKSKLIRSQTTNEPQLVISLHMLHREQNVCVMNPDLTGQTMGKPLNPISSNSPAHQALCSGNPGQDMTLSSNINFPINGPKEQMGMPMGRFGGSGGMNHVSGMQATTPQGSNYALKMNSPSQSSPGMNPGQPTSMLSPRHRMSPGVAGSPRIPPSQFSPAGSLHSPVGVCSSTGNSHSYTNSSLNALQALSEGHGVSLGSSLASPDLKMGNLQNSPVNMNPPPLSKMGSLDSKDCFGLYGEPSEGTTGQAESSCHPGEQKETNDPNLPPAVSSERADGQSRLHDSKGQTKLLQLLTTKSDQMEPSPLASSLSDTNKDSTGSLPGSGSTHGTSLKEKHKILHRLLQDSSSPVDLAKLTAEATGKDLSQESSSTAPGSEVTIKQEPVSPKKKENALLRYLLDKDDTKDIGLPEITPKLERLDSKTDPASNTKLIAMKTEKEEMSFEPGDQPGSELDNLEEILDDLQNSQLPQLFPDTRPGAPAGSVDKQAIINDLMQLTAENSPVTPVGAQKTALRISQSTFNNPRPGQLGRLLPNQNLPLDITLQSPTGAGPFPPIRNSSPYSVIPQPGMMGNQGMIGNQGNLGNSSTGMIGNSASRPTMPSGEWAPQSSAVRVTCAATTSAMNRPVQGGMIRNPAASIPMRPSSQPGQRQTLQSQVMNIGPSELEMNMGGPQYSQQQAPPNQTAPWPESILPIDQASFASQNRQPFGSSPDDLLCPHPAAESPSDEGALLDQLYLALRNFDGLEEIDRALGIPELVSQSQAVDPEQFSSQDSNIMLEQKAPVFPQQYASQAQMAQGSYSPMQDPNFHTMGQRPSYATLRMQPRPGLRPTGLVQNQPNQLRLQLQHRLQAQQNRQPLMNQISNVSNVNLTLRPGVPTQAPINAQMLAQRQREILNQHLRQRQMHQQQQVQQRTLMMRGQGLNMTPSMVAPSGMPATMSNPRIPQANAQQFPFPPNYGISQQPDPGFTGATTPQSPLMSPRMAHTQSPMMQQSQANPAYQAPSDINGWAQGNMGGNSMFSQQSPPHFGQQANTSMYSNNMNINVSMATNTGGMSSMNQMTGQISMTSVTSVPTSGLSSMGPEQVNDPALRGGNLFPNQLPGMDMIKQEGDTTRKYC

[23] = target: Peroxisome proliferator-activated receptor gamma/Nuclear receptor coactivator 1 (Homo sapiens, UniProt P37231); assay type: functional;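 further: agonist potency as compounds enhance coactivator SRC-1 recruitment to PPARgamma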
Chain of Peroxisome proliferator-activated receptor gamma/Nuclear receptor coactivator 1 (P37231 whole entry): as the sequence (P37231 whole entry) above
Chain of Peroxisome proliferator-activated receptor gamma/Nuclear receptor coactivator 1 (Q15788 whole entry, further chain): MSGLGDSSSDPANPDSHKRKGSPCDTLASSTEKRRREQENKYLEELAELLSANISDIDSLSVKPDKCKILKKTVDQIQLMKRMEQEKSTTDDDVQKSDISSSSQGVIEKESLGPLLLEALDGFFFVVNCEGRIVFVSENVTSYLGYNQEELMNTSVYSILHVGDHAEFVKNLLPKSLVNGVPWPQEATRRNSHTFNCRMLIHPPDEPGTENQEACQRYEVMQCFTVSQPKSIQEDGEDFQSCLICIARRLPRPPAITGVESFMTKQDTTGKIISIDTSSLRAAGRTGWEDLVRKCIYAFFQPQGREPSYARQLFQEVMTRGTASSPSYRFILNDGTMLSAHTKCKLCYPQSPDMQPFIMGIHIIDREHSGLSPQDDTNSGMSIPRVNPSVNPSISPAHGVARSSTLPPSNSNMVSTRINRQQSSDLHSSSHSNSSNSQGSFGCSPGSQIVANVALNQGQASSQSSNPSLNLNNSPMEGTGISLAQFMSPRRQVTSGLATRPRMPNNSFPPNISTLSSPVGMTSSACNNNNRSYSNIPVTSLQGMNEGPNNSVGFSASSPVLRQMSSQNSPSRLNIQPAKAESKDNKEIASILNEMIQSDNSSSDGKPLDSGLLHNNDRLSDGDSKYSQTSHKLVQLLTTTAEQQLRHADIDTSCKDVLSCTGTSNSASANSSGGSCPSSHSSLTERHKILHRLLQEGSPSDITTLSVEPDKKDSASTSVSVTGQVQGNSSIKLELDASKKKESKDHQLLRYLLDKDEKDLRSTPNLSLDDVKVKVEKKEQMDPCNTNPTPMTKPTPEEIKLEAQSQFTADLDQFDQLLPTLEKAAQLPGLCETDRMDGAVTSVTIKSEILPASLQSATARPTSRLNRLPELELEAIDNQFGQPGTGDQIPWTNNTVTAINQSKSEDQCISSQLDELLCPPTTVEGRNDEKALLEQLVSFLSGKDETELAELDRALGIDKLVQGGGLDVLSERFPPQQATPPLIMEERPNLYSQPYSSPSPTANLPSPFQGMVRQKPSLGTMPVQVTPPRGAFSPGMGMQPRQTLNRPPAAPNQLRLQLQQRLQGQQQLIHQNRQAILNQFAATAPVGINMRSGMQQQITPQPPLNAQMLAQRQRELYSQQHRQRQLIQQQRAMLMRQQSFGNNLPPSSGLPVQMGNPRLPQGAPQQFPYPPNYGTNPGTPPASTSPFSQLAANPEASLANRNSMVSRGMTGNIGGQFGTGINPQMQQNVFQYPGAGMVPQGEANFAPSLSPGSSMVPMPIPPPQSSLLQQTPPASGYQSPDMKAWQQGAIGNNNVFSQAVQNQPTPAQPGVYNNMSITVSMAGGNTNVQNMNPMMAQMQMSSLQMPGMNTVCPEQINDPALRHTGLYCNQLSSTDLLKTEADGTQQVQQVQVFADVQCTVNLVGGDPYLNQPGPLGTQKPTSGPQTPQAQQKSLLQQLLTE

[24] = target: Peroxisome proliferator-activated receptor gamma/Nuclear receptor coactivator 3 (Homo sapiens, UniProt P37231); assay type: functional;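 further: agonist potency for raising coactivator recruitment to the receptor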
[25] = target: Neurotensin receptor type 1 (Homo sapiens, UniProt P30989); assay type: functional;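 further: Image-based confirmatory dose-response assay measuring agonist activity at NTR1; NTR1-expressing U2OS osteosarcoma cells imaged for beta-arrestin GFP spot formation; agonist potency where compounds increase beta-arrestin recruitment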
Chain of Neurotensin receptor type 1 (P30989 whole entry): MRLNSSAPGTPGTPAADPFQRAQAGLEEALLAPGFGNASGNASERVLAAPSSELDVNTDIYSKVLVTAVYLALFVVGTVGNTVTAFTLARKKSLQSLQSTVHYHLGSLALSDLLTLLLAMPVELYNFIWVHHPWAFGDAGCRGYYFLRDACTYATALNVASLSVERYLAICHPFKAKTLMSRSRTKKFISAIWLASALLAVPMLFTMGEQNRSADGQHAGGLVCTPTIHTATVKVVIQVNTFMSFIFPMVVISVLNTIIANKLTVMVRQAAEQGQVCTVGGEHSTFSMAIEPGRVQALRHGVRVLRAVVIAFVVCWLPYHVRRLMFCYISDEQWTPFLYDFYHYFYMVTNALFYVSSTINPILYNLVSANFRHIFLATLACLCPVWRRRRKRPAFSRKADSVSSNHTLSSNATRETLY

Aspartyl aminopeptidase = target: T3, Aspartyl aminopeptidase (Plasmodium falciparum 3D7, UniProt Q8I2J3); assay: Counterscreen for inhibitors of M1 and M17 aminopeptidases: QFRET-based biochemical high throughput dose response assay for inhibitors of the Plasmodium falciparum M18 Aspartyl Aminopeptidase (PFM18AAP). [Related PubChem assays: 1619 (Screening assay (M17LAP inhibitors).), 1445 (Screening assay (M1AAP inhibitors).)]
T3 sequence (Q8I2J3 whole entry): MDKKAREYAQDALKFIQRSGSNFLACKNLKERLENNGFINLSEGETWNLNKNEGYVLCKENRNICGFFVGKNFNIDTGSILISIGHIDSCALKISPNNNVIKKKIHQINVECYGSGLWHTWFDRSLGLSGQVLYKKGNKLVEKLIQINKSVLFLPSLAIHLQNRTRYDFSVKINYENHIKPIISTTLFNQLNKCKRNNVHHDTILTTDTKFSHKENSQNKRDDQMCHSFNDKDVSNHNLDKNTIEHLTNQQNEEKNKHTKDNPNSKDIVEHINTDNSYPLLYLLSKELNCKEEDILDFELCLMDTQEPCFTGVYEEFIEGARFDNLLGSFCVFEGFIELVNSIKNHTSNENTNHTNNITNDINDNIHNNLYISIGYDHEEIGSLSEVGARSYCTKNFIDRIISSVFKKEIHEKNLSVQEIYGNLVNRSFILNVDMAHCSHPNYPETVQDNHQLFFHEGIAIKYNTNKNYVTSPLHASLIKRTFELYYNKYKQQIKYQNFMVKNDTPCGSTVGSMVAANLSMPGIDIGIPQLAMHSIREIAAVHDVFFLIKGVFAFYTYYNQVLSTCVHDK

Aminopeptidase N = target: T4, Aminopeptidase N (Plasmodium falciparum FcB1/Columbia, UniProt O96935); assay: P. falciparum M1AAP inhibitors, biochemical, fluorogenic H-Leu-NHMec substrate, 1536-well (AID 1445); design: species or system Plasmodium falciparum 3D7, 3D7
T4 sequence (O96935 whole entry): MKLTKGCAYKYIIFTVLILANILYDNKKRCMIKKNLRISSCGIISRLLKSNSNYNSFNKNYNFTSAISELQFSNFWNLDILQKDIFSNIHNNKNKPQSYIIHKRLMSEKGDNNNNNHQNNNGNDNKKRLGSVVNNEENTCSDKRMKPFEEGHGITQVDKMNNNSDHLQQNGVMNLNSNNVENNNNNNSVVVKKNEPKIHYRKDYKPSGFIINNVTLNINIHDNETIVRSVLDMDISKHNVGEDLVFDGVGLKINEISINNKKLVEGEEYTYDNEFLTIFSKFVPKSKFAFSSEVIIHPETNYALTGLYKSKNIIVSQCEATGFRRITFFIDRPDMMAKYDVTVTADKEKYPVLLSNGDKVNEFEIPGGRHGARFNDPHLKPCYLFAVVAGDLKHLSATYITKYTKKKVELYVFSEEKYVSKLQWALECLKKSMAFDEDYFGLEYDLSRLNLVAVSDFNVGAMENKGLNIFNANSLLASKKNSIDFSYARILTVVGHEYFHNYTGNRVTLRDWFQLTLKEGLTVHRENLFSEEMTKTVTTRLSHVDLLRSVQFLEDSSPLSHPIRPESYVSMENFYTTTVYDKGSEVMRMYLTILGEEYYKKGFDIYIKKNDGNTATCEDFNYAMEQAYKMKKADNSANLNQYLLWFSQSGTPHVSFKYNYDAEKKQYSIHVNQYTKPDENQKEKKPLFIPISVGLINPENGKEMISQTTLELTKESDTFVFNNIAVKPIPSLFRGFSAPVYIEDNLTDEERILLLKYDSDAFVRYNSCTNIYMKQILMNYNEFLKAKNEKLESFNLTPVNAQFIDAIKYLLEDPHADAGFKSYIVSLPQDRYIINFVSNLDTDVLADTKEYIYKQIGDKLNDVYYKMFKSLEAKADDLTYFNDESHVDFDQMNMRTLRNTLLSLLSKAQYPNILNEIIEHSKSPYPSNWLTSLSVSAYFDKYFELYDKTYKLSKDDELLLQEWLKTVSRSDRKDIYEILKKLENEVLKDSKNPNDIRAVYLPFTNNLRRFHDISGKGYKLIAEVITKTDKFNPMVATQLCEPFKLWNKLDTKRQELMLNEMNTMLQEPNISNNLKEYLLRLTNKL

Procathepsin L = Procathepsin L (Homo sapiens, UniProt P07711); assay: cathepsin L inhibitors, dose response, counter-screen for M1/M17 aminopeptidase inhibitor project, biochemical, QFRET, 1536-well (AID 2214)
Genome polyprotein = Genome polyprotein (dengue virus type 2, UniProt P29990); assay: Dengue-2 NS5 methyltransferase inhibitors, primary screen, biochemical, confirmation dose response (AID 588689); assay type: functional
[26] = target: T5, Microphthalmia-associated transcription factor (Homo sapiens, UniProt O75030); assay: TRPM1 promoter luciferase signal decrease, dose response, MITF inhibitor project, cell-based, SK-MEL-5, cherry-picked, set 3 (AID 493073); assay type: functional
T5 sequence (O75030 whole entry): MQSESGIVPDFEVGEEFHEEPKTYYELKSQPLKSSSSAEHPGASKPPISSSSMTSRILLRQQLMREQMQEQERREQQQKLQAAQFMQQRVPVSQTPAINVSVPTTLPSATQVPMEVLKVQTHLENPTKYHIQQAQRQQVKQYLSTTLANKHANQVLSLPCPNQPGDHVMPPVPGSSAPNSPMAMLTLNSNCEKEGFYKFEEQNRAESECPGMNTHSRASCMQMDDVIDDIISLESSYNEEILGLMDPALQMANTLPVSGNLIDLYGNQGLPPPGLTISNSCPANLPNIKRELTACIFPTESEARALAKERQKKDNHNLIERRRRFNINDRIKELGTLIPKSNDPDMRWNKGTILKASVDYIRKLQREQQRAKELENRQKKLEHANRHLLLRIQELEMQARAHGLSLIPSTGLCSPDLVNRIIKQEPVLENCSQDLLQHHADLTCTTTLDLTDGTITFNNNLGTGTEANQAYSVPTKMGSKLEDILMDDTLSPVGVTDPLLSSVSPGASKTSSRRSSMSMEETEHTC

SMILES: CC1CCc2c(sc3ncn(CC(=O)N=Nc4c(O)[nH]c5ccccc45)c(=O)c23)C1 (configuration not stated)
- Absolute IC50 (XBP1) (X-box-binding protein 1): 10 µM

SMILES: O=C(CSc1nnc(-c2ccccc2)o1)Nc1ccccc1F
- EC50 [1]: 4.09 µM (inconclusive)
- EC50 (BJ [2]): 11.5 µM (active)
- EC50 [3]: 2.93 µM (active)
- IC50 [4]: > 100 µM (not active)
- EC50 [5]: 1.07 µM (active)
- EC50 [6]: 1.21 µM (active)
- EC50 (BJ [7]): 7.86 µM (active)
- EC50 (HT-1080): > 50 µM (not active)
- EC50 (BJ [8]): > 150 µM (inconclusive)
- EC50 [9]: 8.39 µM (active)

SMILES: Cc1cc(-c2csc(N)n2)c(C)n1CCc1ccccc1
- EC50 [3]: 0.38 µM (active)
- EC50 (HT-1080): > 50 µM (not active)
- IC50 (cells [10]): > 29.9 µM (inactive)
- EC50 [11]: 0.449 µM (active)
- IC50 [12]: 3.8 µM (active)
- EC50 (cells [13]): > 29.9 µM (inactive)

SMILES: O=C(Nc1ncc(Cc2ccccc2Cl)s1)C1=NCCN1
- CC50 [14]: > 40 µM (active)
- CC50 [15]: > 40 µM (active)
- CC50 [16]: > 20 µM (active)
- IC50 (cells [17]): 4.03 µM (active)

SMILES: O=C(O)CCSc1nc2cc(Br)ccc2[nH]1
- EC50 [18]: > 20 µM (not active)
- EC50 [19]: > 20 µM (not active)

SMILES: CCCCCC(=O)N(O)C1CC(=O)N(c2ccccc2)C1=O (configuration not stated)
- IC50 [20]: 59.7 µM (active)
- AC50 [21]: 4.5 µM (active)

SMILES: Cn1cnnc1SCc1ccc(C(=O)N=Nc2c(O)n(C)c3ccccc23)cc1
- EC50 [22]: > 79.4 µM (not active)
- EC50 [23]: > 79.4 µM (not active)
- EC50 [24]: > 79.4 µM (not active)

SMILES: C=CCn1/c(=N/C(=O)c2cccc(N3C(=O)CCC3=O)c2)sc2cccc(OC)c21
- EC50 [25]: > 40 µM (inactive)

SMILES: O=C1/C(=C/c2cccs2)SC(=S)N1NS(=O)(=O)c1ccccc1
- IC50 (Aspartyl aminopeptidase): > 73.5 µM (not active)
- IC50 (Aminopeptidase N): 16.6 µM (active)
- IC50 (Procathepsin L): > 59.6 µM (not active)
- IC50 (Genome polyprotein): 57.4 µM (active)

SMILES: CCSC1=C(C#N)C(=O)n2c1cc1c2CCCC1
- EC50 [18]: 13.6 µM (active)
- EC50 [19]: 15.4 µM (active)

SMILES: CCOc1cc(NC(=O)c2cccs2)c(OCC)cc1N=C(S)NCC(C)C
- Absolute IC50 (XBP1) (X-box-binding protein 1): 10 µM

SMILES: Cc1[nH]c2ccccc2c1C(=O)C(=O)NCCOc1ccccc1
- EC50 [22]: > 79.4 µM (not active)
- EC50 [23]: > 79.4 µM (not active)
- EC50 [24]: > 79.4 µM (not active)

SMILES: Cc1ccccc1C(=O)N/N=C/c1ccc([N+](=O)[O-])s1
- EC50 [3]: 11 µM (active)
- EC50 (HT-1080): > 50 µM (not active)
- AC50 [26]: 1.88 µM (active)
